# Reference: ChEMBL document CHEMBL1201862, “PubChem BioAssay data set” (2004)
# The source made the active and inactive calls.
# What was measured:
# [1] = Trypanosoma cruzi growth suppression in host cells – NIH3T3 host cells, beta-gal luminescence, confirmation (AID 2044); assay type: functional, cell-based;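 further: intracellular parasites grown in NIH/3T3 mouse fibroblasts as host cells; luminescent beta-galactosidase reporter signal from transgenic T. cruzi replicating inside host cells; inhibitors lower the luminescence signal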
# [2] = NIH3T3 cell viability loss – ATP luminescence, mouse fibroblasts, counter-screen, dose response (AID 2010); assay type: functional, cell-based;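 further: cells exposed to compound for about 90 hours before reading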
# [3] = NIH-3T3 fibroblast cytotoxicity, dose response, cytotoxicity control, cell-based, fluorescence, Alamar Blue, secondary assay (AID 2327); assay type: functional;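 further: NIH-3T3 mouse fibroblasts cultured with fluconazole at 8 µg/mL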
# [4] = fluconazole-exposed Candida albicans growth modulators – fluorescence, retest, confirmation (AID 2467); assay type: functional, cell-based
# [5] = molecular target: Luciferin 4-monooxygenase (Photinus pyralis, UniProt P08659); test: inhibition of purified Photinus pyralis luciferase – biochemical, luminescence, dose response (AID 1891)
# [6] = Luminescence Cell-Based Dose Confirmation HTS to Identify Inhibitors of Platelet Dense Granule Release. [Related pubchem assays: 1663 (Primary HTS), 1678 (Summary of Project)]; assay type: functional
# Paired box protein Pax-8 = Paired box protein Pax-8 (Homo sapiens, UniProt Q06710); test: PAX8 transcriptional activity inhibition in RMG-I – RMG-I cells, luciferase, cherry-pick, dose response (AID 687027); assay type: functional, cell-based;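 further: luciferase reporter driven by Pax8 target thyroperoxidase promoter measured by SteadyGlo luminescence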
# Protein RecA = molecular target: T1, Protein RecA (Mycobacterium tuberculosis, UniProt P9WHJ3); test: Fluorescence Cell-Free Homogeneous Dose Retest to Identify Inhibitors of RecA-Intein Splicing Activity. [Related pubchem assays (depositor defined):AID2097, AID2223, AID489010, AID492950]; assay type: functional
# T1 sequence (P9WHJ3 whole entry): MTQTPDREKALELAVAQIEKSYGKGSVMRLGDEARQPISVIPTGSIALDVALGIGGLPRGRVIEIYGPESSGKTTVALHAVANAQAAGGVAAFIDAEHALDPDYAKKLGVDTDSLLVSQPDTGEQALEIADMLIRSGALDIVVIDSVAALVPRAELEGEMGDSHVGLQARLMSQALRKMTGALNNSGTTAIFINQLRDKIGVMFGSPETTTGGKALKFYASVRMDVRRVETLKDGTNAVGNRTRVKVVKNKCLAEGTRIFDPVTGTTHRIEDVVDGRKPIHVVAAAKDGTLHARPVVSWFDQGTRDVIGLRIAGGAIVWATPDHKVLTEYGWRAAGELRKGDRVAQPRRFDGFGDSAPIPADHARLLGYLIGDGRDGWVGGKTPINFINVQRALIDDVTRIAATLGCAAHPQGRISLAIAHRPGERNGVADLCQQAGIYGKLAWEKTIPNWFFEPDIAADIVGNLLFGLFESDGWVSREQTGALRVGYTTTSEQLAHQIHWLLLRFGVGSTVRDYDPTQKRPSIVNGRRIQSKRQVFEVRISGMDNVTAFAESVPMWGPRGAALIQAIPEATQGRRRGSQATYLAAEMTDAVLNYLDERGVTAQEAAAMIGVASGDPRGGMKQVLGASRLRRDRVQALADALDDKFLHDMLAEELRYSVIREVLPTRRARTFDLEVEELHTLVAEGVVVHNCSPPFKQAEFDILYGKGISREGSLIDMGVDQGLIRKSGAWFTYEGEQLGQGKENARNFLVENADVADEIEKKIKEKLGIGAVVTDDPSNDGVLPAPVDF
# [7] = molecular target: T2, Replicative DNA helicase DnaB (Mycobacterium tuberculosis, UniProt P9WMR3); test: DnaB intein splicing inhibitors, dose response, biochemical, cell-free fluorescence (AID 449749); assay type: functional
# T2 sequence (P9WMR3 whole entry): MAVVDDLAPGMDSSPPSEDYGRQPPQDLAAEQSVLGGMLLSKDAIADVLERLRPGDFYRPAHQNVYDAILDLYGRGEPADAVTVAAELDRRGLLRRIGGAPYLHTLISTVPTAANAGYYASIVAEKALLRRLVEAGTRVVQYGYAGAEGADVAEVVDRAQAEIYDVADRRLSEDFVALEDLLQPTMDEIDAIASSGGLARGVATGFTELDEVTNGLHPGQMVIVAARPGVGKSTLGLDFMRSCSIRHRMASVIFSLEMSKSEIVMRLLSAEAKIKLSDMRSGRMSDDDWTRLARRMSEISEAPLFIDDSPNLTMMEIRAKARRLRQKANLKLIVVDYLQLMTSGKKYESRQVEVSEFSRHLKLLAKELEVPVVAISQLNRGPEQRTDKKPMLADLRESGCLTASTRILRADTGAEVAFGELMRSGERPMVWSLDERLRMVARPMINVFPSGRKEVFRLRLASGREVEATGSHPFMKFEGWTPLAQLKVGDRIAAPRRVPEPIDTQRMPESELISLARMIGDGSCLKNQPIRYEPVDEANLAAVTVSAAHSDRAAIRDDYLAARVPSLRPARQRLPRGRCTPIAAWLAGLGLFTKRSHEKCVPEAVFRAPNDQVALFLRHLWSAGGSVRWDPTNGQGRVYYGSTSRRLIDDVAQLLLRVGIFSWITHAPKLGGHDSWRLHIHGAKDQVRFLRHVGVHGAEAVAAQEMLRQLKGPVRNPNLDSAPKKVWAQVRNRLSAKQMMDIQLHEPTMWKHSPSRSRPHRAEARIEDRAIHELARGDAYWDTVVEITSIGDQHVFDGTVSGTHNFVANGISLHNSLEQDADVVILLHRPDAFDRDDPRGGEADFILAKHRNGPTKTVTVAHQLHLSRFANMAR
# [8] = microbe, parasite or virus in culture; assay type: functional; details: Mycobacterium tuberculosis
# Cytochrome P450 2C9 = Cytochrome P450 2C9 (Homo sapiens, UniProt P11712)
# Cytochrome P450 2C19 = Cytochrome P450 2C19 (Homo sapiens, UniProt P33261); test: Cytochrome panel assay with activity outcomes. Panel member name: p450-cyp2c19 Compounds with AC50 equal or less than 10 uM are considered active; assay type: functional; details: read-out: AC50
# [9] = molecular target: T3, Carboxy-terminal domain RNA polymerase II polypeptide A small phosphatase 1 (Homo sapiens, UniProt Q9GZU7); test: CTDSP1 inhibitors, concentration-response, biochemical, absorbance readout, ultra-high-throughput screen actives (AID 540297); assay type: functional
# T3 sequence (Q9GZU7 whole entry): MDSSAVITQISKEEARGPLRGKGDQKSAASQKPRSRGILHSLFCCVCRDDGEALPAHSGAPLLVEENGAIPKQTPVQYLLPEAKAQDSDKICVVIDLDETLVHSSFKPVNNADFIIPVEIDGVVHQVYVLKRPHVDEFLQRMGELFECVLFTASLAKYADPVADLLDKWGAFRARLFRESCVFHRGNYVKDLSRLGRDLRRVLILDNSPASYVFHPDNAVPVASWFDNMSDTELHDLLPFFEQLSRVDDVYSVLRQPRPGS
# [10] = Luminescence Cell-Based Dose Retest to Confirm Inhibitors of Cancer Stem Cells. [Related pubchem assays (depositor defined):AID2717, AID2721]; assay type: functional; details: Homo sapiens
# [11] = system: Streptococcus sp. 'group A'; test: Streptococcus pyogenes SK(-)GAS viability under kanamycin – luminescence, BacTiterGlo, confirmation, counter-screen for streptokinase expression inhibitor project, dose response (AID 1900); assay type: functional, organism-based
# Streptokinase A = molecular target: T4, Streptokinase A (Streptococcus pyogenes serotype M1, UniProt P10520); test: viability-normalized secreted streptokinase activity reduction – plasminogen activation absorbance, OD405, dose response (AID 1914); assay type: functional, Streptococcus pyogenes M1 GAS;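 further: secreted streptokinase activity via plasminogen activation per viability signal from cell pellet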
# T4 sequence (P10520 whole entry): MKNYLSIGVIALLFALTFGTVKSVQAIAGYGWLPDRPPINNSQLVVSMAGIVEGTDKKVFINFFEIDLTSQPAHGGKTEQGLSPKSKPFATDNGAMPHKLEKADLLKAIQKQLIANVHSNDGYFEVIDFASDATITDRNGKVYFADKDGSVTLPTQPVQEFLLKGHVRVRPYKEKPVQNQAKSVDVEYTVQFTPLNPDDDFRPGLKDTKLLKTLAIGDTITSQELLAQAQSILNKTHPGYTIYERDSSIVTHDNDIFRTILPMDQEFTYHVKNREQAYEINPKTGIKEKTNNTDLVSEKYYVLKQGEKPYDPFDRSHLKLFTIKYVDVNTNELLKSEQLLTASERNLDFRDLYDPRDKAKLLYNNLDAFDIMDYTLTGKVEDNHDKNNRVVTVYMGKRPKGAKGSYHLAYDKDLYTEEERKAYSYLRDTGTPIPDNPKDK
# Streptococcus = test: GAS UMAA2166 growth inhibition – luminescence, BacTiterGlo, counter-screen for streptokinase expression inhibitor project, dose response (AID 1915); assay type: functional, organism-based;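 further: potency for reduction of bacterial viability or growth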
# Sequence of Luciferin 4-monooxygenase (P08659 whole entry): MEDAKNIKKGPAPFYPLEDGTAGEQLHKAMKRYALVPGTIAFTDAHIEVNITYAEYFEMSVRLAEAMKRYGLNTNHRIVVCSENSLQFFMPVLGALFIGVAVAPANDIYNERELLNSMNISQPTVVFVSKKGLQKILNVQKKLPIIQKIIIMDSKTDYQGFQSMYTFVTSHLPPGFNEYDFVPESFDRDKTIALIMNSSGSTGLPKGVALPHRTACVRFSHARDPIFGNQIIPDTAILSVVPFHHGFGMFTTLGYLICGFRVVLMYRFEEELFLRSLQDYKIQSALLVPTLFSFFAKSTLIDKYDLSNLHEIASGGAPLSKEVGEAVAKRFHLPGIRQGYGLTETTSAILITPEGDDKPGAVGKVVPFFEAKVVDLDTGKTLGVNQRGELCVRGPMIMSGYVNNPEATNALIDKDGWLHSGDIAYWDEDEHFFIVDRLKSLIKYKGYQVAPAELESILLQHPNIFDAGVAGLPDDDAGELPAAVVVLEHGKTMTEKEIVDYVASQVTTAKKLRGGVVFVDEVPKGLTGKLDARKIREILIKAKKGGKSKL
# Sequence of Cytochrome P450 2C19 (P33261 whole entry, the tested form may be a part): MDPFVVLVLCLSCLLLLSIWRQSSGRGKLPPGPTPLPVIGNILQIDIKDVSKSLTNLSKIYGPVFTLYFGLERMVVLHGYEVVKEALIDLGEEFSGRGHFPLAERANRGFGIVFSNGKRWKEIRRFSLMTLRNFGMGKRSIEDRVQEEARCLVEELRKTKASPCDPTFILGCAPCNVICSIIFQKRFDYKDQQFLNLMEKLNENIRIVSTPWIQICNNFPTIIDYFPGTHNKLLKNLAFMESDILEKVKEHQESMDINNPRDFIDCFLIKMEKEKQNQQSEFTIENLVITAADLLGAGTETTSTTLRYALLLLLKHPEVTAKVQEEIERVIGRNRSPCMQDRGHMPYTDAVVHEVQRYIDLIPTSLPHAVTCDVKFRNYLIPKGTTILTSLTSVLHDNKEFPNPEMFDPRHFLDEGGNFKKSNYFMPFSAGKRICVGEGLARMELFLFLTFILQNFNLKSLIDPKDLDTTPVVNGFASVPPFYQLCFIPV
# Sequence of Paired box protein Pax-8 (Q06710 whole entry): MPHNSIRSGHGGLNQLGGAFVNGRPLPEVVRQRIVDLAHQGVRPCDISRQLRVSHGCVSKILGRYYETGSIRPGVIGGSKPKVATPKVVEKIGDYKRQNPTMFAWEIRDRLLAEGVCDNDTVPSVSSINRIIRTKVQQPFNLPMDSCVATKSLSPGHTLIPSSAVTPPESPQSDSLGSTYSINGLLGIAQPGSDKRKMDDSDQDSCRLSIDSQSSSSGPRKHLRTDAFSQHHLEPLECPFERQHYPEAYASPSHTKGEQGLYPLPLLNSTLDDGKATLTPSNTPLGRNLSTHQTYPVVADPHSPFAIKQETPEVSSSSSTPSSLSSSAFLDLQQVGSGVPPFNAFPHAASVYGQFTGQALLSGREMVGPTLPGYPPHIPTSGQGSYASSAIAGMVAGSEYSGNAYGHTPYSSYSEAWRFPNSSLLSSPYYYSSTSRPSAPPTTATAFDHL
# Sequence of Cytochrome P450 2C9 (P11712 whole entry): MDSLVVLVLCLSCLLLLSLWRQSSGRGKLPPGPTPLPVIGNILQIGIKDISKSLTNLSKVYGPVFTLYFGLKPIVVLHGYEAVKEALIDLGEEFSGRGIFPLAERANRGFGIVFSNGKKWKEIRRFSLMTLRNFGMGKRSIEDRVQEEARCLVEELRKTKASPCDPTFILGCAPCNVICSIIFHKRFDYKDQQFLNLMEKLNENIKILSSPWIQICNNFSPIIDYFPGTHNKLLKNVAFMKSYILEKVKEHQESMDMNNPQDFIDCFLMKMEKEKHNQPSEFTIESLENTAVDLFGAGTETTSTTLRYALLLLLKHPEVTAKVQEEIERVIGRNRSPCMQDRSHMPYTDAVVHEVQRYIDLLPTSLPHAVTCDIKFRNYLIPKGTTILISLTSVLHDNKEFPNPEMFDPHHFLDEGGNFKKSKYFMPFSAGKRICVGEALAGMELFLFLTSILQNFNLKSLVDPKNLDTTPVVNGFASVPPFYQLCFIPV
compound,measurement,setting,value
Cc1cccc(N2CCN(c3nc(C)cc(C)c3C#N)CC2C)c1 (stereo not drawn),EC50,[1],3.63 µM (active)
same,EC50,[2],> 60 µM (not active)
same,EC50,[3],41.3 µM (active)
same,EC50,[4],> 38 µM (not active)
C=CCn1c(NC(=O)c2ccc(Br)o2)c(C(=O)OCC)sc1=S,EC50,[3],> 160 µM (inconclusive)
same,EC50,[4],> 38 µM (not active)
COC(=O)c1oc2ccc(Br)cc2c1-n1cccc1,EC50,[5],> 112 µM (not active)
same,EC50,[6],> 112 µM (not active)
Cc1ccc(C2=[N+]([O-])C3(CCCCC/C3=N\O)N(O)C2(C)C)o1 (stereo not drawn),EC50,[5],> 112 µM (not active)
same,EC50,[6],> 112 µM (not active)
COc1ccc(CCNC(=O)c2cc3c(=O)n4ccccc4nc3n(Cc3ccco3)c2=N)cc1OC,EC50,[5],> 112 µM (not active)
same,EC50,[6],44 µM (active)
C[C@@H]1CN([C@@H](C)CO)C(=O)c2ccccc2-c2ccccc2CO[C@@H]1CN(C)Cc1ccc2c(c1)OCCN2C,AC50,Paired box protein Pax-8,29.5 µM (active)
Cn1c(-c2ccccc2)c(C(=O)CCl)c2ccccc21,EC50,[1],0.998 µM (active)
same,EC50,[2],2.44 µM (active)
same,EC50,Protein RecA,3.04 µM (active)
same,AC50,[7],6.94 µM (active)
Cc1cc(OC(C)C(=O)NCc2ccncc2)c2c3c(c(=O)oc2c1)CCC3 (stereo not drawn),EC50,[5],> 112 µM (not active)
same,EC50,[6],> 112 µM (not active)
CCOC(=O)c1cc(CC)sc1NC(=O)c1cc(OCC)c(OCC)c(OCC)c1,CC50,[8],> 40 µM (active)
same,AC50,Cytochrome P450 2C9,20 µM (inconclusive)
same,AC50,Cytochrome P450 2C19,25.1 µM (inconclusive)
CC1CCN(C(=S)NC(=O)c2cccs2)CC1,CC50,[8],> 40 µM (active)
O=C(Nc1cc(S(=O)(=O)N2CCCCC2)ccc1Cl)C1COc2ccccc2O1 (stereo not drawn),IC50,[9],46.4 µM (active)
NCCCn1c(C(=O)c2ccc(Cl)cc2)c2ccc([N+](=O)[O-])cc2[n+]1[O-],CC50,[8],35.4 µM (active)
CC(C)=CCOc1ccc([C@@H]2COc3c(ccc4c3C=CC(C)(C)O4)C2)c(O)c1,AC50,[10],3.44 µM (active)
same,EC50,[11],2.28 µM (active)
same,CC50,[8],> 40 µM (active)
same,EC50,Streptokinase A,> 150 µM (not active)
same,EC50,Streptococcus,2.25 µM (active)
Cc1cc(-c2nnc(CCC(=O)NC(C)c3cccc4ccccc34)o2)no1 (stereo not drawn),EC50,[5],> 112 µM (not active)
same,EC50,[6],> 112 µM (not active)
Cc1c(CC(=O)O)c(=O)oc2c(C)c3occ(-c4ccc(Br)cc4)c3cc12,IC50,[9],7.37 µM (active)
